From patent US20220054658A1, “CONJUGATES” (Transfection Holdings Limited, priority 2018, published 2022)
Entries after “also recorded” stand apart in the source; their conditions may differ.

Legend:
C. elegans = assay: Conjugate uptake in C. elegans (dye and praziquantel conjugates, fluorescence microscopy); type: in vivo, Caenorhabditis elegans; details: 50 μM; for viability of the nematodes: readings up to 72 h
Procedure: Nematode Growth Media (NGM) plates containing C. elegans were washed with 1.0-1.5 mL of standard M9 buffer and the washes were collected in an Eppendorf tube. The liquid containing the C. elegans was then spun for 1 min at room temperature at 10,000 rpm. The supernatant was removed, and fresh M9 buffer was added (500 μL) to generate a new stock solution of M9 buffer containing the C. elegans.
A C. elegans suspension (100 μL) was added a defined amount of M9 buffer (determined by the final desired concentration of compound to be tested: 399 μL in the case of the BODIPY tagged derivatives) contained within a separate Eppendorf tube. To this was then added a 25 mM solution of the compound in DMSO (1 μL). The resulting suspension was mixed using a vortex instrument.
The resulting mixture was incubated at room temperature for 2 to 4 h. in the dark (using aluminium foil to screen the tube, which was also stored in a cabinet).
Other samples were incubated overnight. Here, OP50 bacteria (3 μL) were added to the worms for feeding purposes, and the worms were kept in the dark at 20° C.
After the incubation, the tube contents were mixed gently by hand (typically by simple rotation of the tube), so as to achieve a homogenous suspension. A sample of the suspension (250 μL) was taken and mixed with M9 buffer (500 μL). The resulting suspension was placed in a centrifuge and spun at room temperature at 10,000 rpm for 1 min. The supernatant was removed, and the washing process was repeated twice more, each time using further quantities of fresh M9 buffer (500 μL each time). After the final washing sufficient supernatant was removed so as to leave a final sample volume of approximate 30 μL.
A 1.5% agarose solution in water was pre-warmed for 60 to 90 s. in a standard household style microwave (set to Power 4). Two drops of this solution was removed and placed on a glass slide. The glass slide was covered with a second glass slide. After 1 min., the slides were slid carefully apart, with the agarose remaining on one of the slides. Onto this slide was placed an aliquot of the final C. elegans solution (15 to 20 μL). To this was added a 20 mM sodium azide solution (5 μL) to inhibit nematode mobility. Vaseline was then placed around the agarose area before replacing the second slide. The slides were not pressed together.
The nematodes were then analysed using a Zeiss Axiskop 2 Plus microscope with a Hamamatsu Orca-ER (CA 742-95) camera. The images were resolved using OpenLab on a Mac operating system.
Compounds 1-11 were evaluated after 3 h and overnight incubation at a 50 μM concentration using the general uptake protocol described for C. elegans.
In order to compare the ability of a conjugate to improve the uptake of the drug praziquantel, two praziquantel derivatives were generated. Praziquantel was tagged with a BODIPY fluorescent tag (compound 12) and incorporated into a conjugate of the invention (compound 13). Compounds 12 and 13 were evaluated at a concentration of 50 μM using the C. elegans uptake protocol described above for compounds 1-11. Microscopic readings were taken after 3, 24 and 72 h.

[1] = tested on: gastrointestinal system (crop, midgut and rectum) of adult honey bees; assay: Honey bee gut uptake test; design: species or system Apis mellifera; details: 100 μM, 33° C., 45 min
Procedure: Honey bee (A. mellifera) hives were obtained and allowed to feed ab libitum spring to autumn. During the winter period, pollen mixed with 50% (v/v) sucrose was added to the honey bee hives in order to provide sufficient food. Honey bees were dissected and gastrointestinal system was removed including the crop, midgut and rectum, and added immediately to 500 μL of the delivery vehicle to be tested sample diluted with PBS at 100 μM final concentration or DMSO (0.1%) control. The mixture was incubated for 45 min at 33° C.
The gastrointestinal system (crop, midgut and rectum) of adult honey bees was extracted, and incubated with derivatives 1, 2, 8 and 11 at 100 μM and 33° C. for 45 min.

L. passim strain PRA-403 = assay: Lotmaria passim parasite uptake test; type: cell-based; details: room temperature, 45 min; for uptake in L. passim (fluorescence intensity, microplate reader): 1 μM and 100 μM
Procedure: 100 mM stock solutions of BODIPY derivatives were prepared with dimethylsulfoxide (DMSO). L passim strain PRA-403 (ATCC) was cultured in modified medium for C. bombi (Tognazzo et al.). The parasite culture was centrifuged, supernatant was removed and 500 μL of L passim medium with compound (final concentration 500, 100, 10 or 1 μM for BODIPY derivatives) or DMSO (0.1%) control was added. Incubated for 45 min at room temperature.
Uptake tests were performed at 1 μM and 100 μM final concentration of CJ-BODIPY derivatives. After incubation at room temperature for 45 min, fluorescence intensities were evaluated using a microplate reader.

| SMILES | uptake compared to other compounds (C. elegans; 3 h incubation) | uptake: location of fluorescence in C. elegans (C. elegans; 3 h incubation) | uptake: location of fluorescence in C. elegans (C. elegans; 20 h / overnight incubation) | uptake: location of fluorescence in C. elegans (C. elegans; 24 h incubation) | uptake: location of fluorescence in C. elegans (C. elegans; 72 h incubation) | viability of the nematodes (C. elegans) | increase in uptake of compound 13 compared to compound 12 (C. elegans; 20 h incubation) | fluorescence in honey bee gut (crop, midgut, rectum) [1] | uptake in L. passim (fluorescence intensity, microplate reader) (L. passim strain PRA-403) | uptake in L. passim (fluorescence microscopy) (L. passim strain PRA-403; 10 μM) |
| --- | --- | --- | --- | --- | --- | --- | --- | --- | --- | --- |
| CC1=CC(C)=[N+]2C1=Cc1ccc(CCCn3cc(CCNC(=O)/C=C\NC(=O)[C@H](O)C(C)(C)CO)nn3)n1[B-]2(F)F [Compound 6, (Z)—N-((((3-[4,4-Difluoro-5,7-dimethyl-4-bora-3a,4a-diaza-s-indacene-3-yl]propyl)-1H-1,2,3-triazol-4-yl)ethylamino)-3-oxoprop-1-enyl)-2,4-dihydroxy-3,3-dimethylbutanamide] | much lower degree than the enantiomeric analogue compound 8 | visible in the gut cells and gut lumen of larval stages and in a lesser extent in the pharynx; also recorded: In adults, fluorescence was located in the pharynx, gut lumen and gut cells; also recorded: Fluorescence was not observed in the embryos | fluorescence was present in the gut lumen and gut cells, and to a smaller degree in the pharynx of the larvae; also recorded: Fluorescence was also present in the pharynx, gut cells and gut lumen of the adults as well as in the early stages of egg development; also recorded: Fluorescence was not observed in the embryos |  |  |  |  |  |  |  |
| CC1=CC(C)=[N+]2C1=Cc1ccc(CCC(=O)N3CC(=O)N4CCc5ccccc5C4C3)n1[B-]2(F)F (stereo not drawn) [Compound 12, 5,5-Difluoro-1,3-dimethyl-7-(3-oxo-3-(4-oxo-3,4,6,7-tetrahydro-1-pyrazino[2,1-a]isoquinolin 2(11 bH)-yl)propyl)-5H-dipyrrolo[1,2-c:2′,1′-f][1,3,2]diazaborinin-4-ium-5-uide, reference compound] |  | weakly up taken up into the pharynx and gut cells of the C. elegans larvae, as well as by adult nematodes mainly in the gut cells with lesser amount in the pharynx |  | the larva showed no increased uptake, with very minor amounts of compound 12 located in the pharynx and the gut cells | only the gut cells of the larvae showed the presence of small amounts of fluorescence; also recorded: In the case of the adult stages, fluorescence was visible in the gut lumen, gut cells and pharynx | remained viable with no apparent detrimental effect |  |  |  |  |
| CC1(C)OCC(C)(C)[C@H](C(=O)N/C=C/C(=O)NCCc2cn(CCCC3=[N+]4C(=Cc5ccc(CCC(=O)N6CC(=O)N7CCc8ccccc8C7C6)n5[B-]4(F)F)C=C3)nn2)O1 (stereo partly drawn) [Compound 13, 5,5-Difluoro-7-(3-oxo-3-(4-oxo-3,4,6,7-tetrahydro-1H-pyrazino[2,1-a]isoquinolin-2(11bH)-yl)propyl)-3-(3-(4-(2-((E)-3-((R)-2,2,5,5-tetramethyl-1,3-dioxane-4-carboxamido)acrylamido)ethyl)-1H-1,2,3-triazol-1-yl)propyl)-5H-dipyrrolo[1,—2-c:2′,1′-f][1,3,2]diazaborinin-4-ium-5-uide] |  | strongly located in the pharynx, gut cells and gut lumen of the larval stages; also recorded: In the adult nematodes, compound 13 was strongly located in the pharynx, gut cells and gut lumen, whilst not visible in the embryos |  | strongly observed in the pharynx, gut cells and gut lumen of the larva | still strongly visible in the pharynx, gut lumen and get cells of the larvae; also recorded: In the case of the adult nematodes, compound 13 was strongly visible in the pharynx and in the gut lumen, as well as in the embryos and eggs | remained viable with no apparent detrimental effect | threefold increase |  |  |  |
| CC1=CC(C)=[N+]2C1=Cc1ccc(CCCn3cc(CCNC(=O)/C=C\NC(=O)[C@H](O)C(C)(C)CO)nn3)n1[B-]2(F)F [Compound 8, (Z)—N-((((3-[4,4-Difluoro-5,7-dimethyl-4-bora-3a,4a-diaza-s-indacene-3-yl]propyl)-1H-1,2,3-triazol-4-yl)ethylamino)-3-oxoprop-1-enyl)-2,4-dihydroxy-3,3-dimethylbutanamide] | second largest uptake observed compared to compounds 1 to 7 | visible in the gut cells and gut lumen and to a lesser extent into the pharynx of larvae; also recorded: In adults, fluorescence was observed in the pharynx, the gut lumen, the gut cells, and eggs | fluorescence was present in the pharynx, gut lumen and gut cells of the larvae; also recorded: In adults, fluorescence was detected in the pharynx, gut lumen and gut cells, but not in the embryos |  |  |  |  | slight fluorescence in midgut and rectum, but none in the crop | relatively low uptake | displayed fluorescence surrounding the cell membrane but not in the cytoplasm |
| CC1=CC(C)=[N+]2C1=Cc1ccc(CCCn3cc(CCNC(=O)/C=C\NC(=O)[C@H]4OC(C)(C)OCC4(C)C)nn3)n1[B-]2(F)F [Compound 4, (Z)—N-((((3-[4,4-Difluoro-5,7-dimethyl-4-bora-3a,4a-diaza-s-indacene-3-yl]propyl)-1H-1,2,3-triazol-4-yl)ethylamino)-3-oxoprop-1-enyl)-2,2,5,5-tetramethyl-1,3-dioxane-4-carboxamide] |  | traces of compound 4 were present in the gut cells of larval stages | fluorescence was detected in the pharynx and the gut cells of the larval stages as well as in the early stage of egg development |  |  |  |  |  | one of the lowest amounts of uptake |  |
